Results on 19 compounds are retold here after patent publication US20250270215A1, “IMIDAZOLE DERIVATIVES AS ALK5 INHIBITORS” (CHIESI FARMACEUTICI S.P.A., priority 2022, published 2025).

Structures are written as SMILES.

For the experiment, the target named is human ALK5 (Homo sapiens (Human), UniProt P36897). In words: ADP-GLO Kinases assay (ALK5 enzymatic activity). The note with it: purified recombinant human ALK5 2.6 nM, TGFβ1 peptide substrate, 25° C., 150 min incubation, ADP-Glo detection. Format: biochemical. As for the experimental part: The enzymatic activity of compounds of the present invention was monitored measuring the formation of ADP using the ADP-GLO Kinases assay. Following the incubation of the purified enzyme, a substrate and ATP, the produced ADP was converted into ATP, which in turn was converted into light by Ultra-Glo Luciferase. The luminescent signal positively correlated with ADP amount and kinase activity. Briefly, the kinase reaction was performed by incubating 2.6 nM of the purified, commercially available human ALK5 (recombinant TGF β1 N-term GST-tagged, 80-end), a final concentration of TGFβ1 peptide 94.5 μM (Promega, T36-58) and ultra-pure ATP (Promega V915B). The ATP concentration was set at the Km value (concentration of substrate which permits the enzyme to achieve half maximal velocity (Vmax)) of ALK5 (5 μM). All reactions/incubations were performed at 25° C. Compound and ALK5 kinase were mixed and incubated for 15 mins. Reactions were initiated by addition of ATP at a final concentration in the assay of 0.83 μM. After an incubation of 150 min, the reaction was stopped, and ADP production detected with ADP-Glo kit according to manufacturer's indications. The assay was performed in 384-well format and was validated using a selection of reference compounds that was tested in 11 point concentration-response curve.
Chain of human ALK5 (P36897 80-503 limits assumed): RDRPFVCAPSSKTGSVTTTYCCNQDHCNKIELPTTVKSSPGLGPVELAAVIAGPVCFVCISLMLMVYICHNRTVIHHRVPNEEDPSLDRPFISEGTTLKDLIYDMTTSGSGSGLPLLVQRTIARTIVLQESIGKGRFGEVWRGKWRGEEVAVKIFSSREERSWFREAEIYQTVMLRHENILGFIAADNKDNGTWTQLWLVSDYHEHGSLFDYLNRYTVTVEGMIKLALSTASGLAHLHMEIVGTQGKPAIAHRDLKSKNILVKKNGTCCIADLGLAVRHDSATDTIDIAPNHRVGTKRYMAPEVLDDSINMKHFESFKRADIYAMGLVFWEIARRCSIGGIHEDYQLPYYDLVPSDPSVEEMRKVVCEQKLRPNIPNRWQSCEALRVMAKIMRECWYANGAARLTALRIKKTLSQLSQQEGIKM
In general terms: In ADP-Glo the light output rises with the ADP produced.
As to `Cc1csc(-c2nc3n(c2-c2cc4cnccc4s2)CCN3)n1` [Example 7, 2-(6-(4-Methylthiazol-2-yl)-2,3-dihydro-1H-imidazo[1,2-a]imidazol-5-yl)thieno[3,2-c]pyridine], the IC50 was < 1 nM.

Turning to `Cn1ccc(-c2nc3n(c2-c2ccc4ncnn4c2)CCN3)n1` [Example 8, 6-(6-(1-Methyl-1H-pyrazol-3-yl)-2,3-dihydro-1H-imidazo[1,2-a]imidazol-5-yl)-[1,2,4]triazolo[1,5-a]pyridine], the IC50 is 5 to 10 nM.

On to `Cn1ccc(-c2nc3n(c2-c2cc4cnccc4s2)CCN3)n1` [Example 9, 2-(6-(1-Methyl-1H-pyrazol-3-yl)-2,3-dihydro-1H-imidazo[1,2-a]imidazol-5-yl)thieno[3,2-c]pyridine], for which the IC50 was in the range of 1 to 5 nM.

Turning to `Cc1cccc(-c2nc3n(c2-c2cccc4ncsc24)CCN3)n1` [Example 15], the IC50 lay in the range of 5 to 10 nM.

For the compound `CCOC(=O)CC1Cn2c(nc(-c3cccc(C)n3)c2-c2cc3cnccc3s2)N1` (stereo not shown) [Example 20, Ethyl 2-[6-(6-methylpyridin-2-yl)-5-{thieno[3,2-c]pyridin-2-yl}-1H,2H,3H-imidazo[1,2-a][1,3]diazol-2-yl] acetate], the IC50 is 1 to 5 nM.

For `Cc1cccc(-c2nc3n(c2-c2cc4cnccc4s2)CC(CC(=O)O)N3)n1` (stereo not shown) [Example 21, 2-[6-(6-Methylpyridin-2-yl)-5-{thieno[3,2-c]pyridin-2-yl}-1H,2H,3H-imidazo[1,2-a][1,3]diazol-2-yl]acetic acid], the IC50 was in the range of 1 to 5 nM.

For the compound `CCN1CCn2c1nc(-c1cccc(C)n1)c2-c1ccc2ncnn2c1` [Example 22, 6-(1-Ethyl-6-(6-methylpyridin-2-yl)-2,3-dihydro-1H-imidazo[1,2-a]imidazol-5-yl)-[1,2,4]triazolo[1,5-a]pyridine], the IC50 is < 1 nM.

Regarding `CCOC(=O)C1Cn2c(nc(-c3cccc(C)n3)c2-c2ccc3ncnn3c2)N1` (stereo not shown) [Example 26, Ethyl 6-(6-methylpyridin-2-yl)-5-{[1,2,4]triazolo[1,5-a]pyridin-6-yl}-1H,2H,3H-imidazo[1,2-a][1,3]diazole-2-carboxylate], the IC50 is 1 to 5 nM.

In the case of `Cc1cccc(-c2nc3n(c2-c2cc4cnccc4s2)CC(C(=O)N(C)C)N3)n1` (stereo not shown) [Example 29, N,N-Dimethyl-6-(6-methylpyridin-2-yl)-5-{thieno[3,2-c]pyridin-2-yl}-1H,2H,3H-imidazo[1,2-a][1,3]diazole-2-carboxamide], the IC50 lay within 1 to 5 nM.

For the compound `Cc1cccc(-c2nc3n(c2-c2ccc4snnc4c2)CCN3)n1` [Example 30, 5-(6-(6-Methylpyridin-2-yl)-2,3-dihydro-1H-imidazo[1,2-a]imidazol-5-yl)benzo[d][1,2,3] thiadiazole], the IC50 lay within 1 to 5 nM.

Take `Cc1cccc(-c2nc3n(c2-c2ccc4nnsc4c2)CCN3)n1` [Example 31, 6-(6-(6-Methylpyridin-2-yl)-2,3-dihydro-1H-imidazo[1,2-a]imidazol-5-yl)benzo[d][1,2,3] thiadiazole]: the IC50 was < 1 nM.

Regarding `CCN1CCn2c1nc(-c1cccc(C)n1)c2-c1ccc2ncsc2c1` [Example 33, 6-[1-Ethyl-6-(6-methylpyridin-2-yl)-1H,2H,3H-imidazo[1,2-a][1,3]diazol-5-yl]-1,3-benzothiazole], the IC50 is < 1 nM.

As to `Cc1cccc(-c2nc3n(c2-c2ccnc4[nH]ccc24)CCN3)n1` [Example 35, 4-(6-(6-Methylpyridin-2-yl)-2,3-dihydro-1H-imidazo[1,2-a]imidazol-5-yl)-1H-pyrrolo[2,3-b]pyridine], the half-maximal inhibitory concentration (IC50) lay within 1 to 5 nM.

As to `CCN1CCn2c1nc(-c1cccc(C)n1)c2-c1cc2cnccc2s1` [Example 42, 2-(1-Ethyl-5-{thieno[3,2-c]pyridin-2-yl}-1H,2H,3H-imidazo[1,2-a] [1,3]diazol-6-yl)-6-methylpyridine], the IC50 fell in the range of 1 to 5 nM.

As to `Cc1cccc(-c2nc3n(c2-c2ccc(F)c(N)c2)CCN3)n1` [Example 43, 2-Fluoro-5-(6-(6-methylpyridin-2-yl)-2,3-dihydro-1H-imidazo[1,2-a]imidazol-5-yl) aniline], the IC50 is 1 to 5 nM.

For `Cc1cccc(-c2nc3n(c2-c2ccc4nc(N)sc4c2)CCN3)n1` [Example 48, 6-(6-(6-Methylpyridin-2-yl)-2,3-dihydro-1H-imidazo[1,2-a]imidazol-5-yl)benzo[d] thiazol-2-amine], the IC50 lay within 1 to 5 nM.

Take `Cc1cccc(-c2nc3n(c2-c2ccc(O)cc2)CCN3)n1` [Example 55, 4-[6-(6-Methylpyridin-2-yl)-1H,2H,3H-imidazo[1,2-a][1,3]diazol-5-yl]phenol]: the IC50 fell in the range of 1 to 5 nM.

With `Cc1cccc(-c2nc3n(c2-c2ccnc(N)c2)CCN3)n1` [Example 56, 4-[6-(6-Methylpyridin-2-yl)-1H,2H,3H-imidazo[1,2-a][1,3]diazol-5-yl]pyridin-2-amine], the IC50 lay within 5 to 10 nM.

Consider `COc1cccc(-c2nc3n(c2-c2ccc4ncsc4c2)CCN3)n1` [Example 57, 6-[6-(6-Methoxypyridin-2-yl)-1H,2H,3H-imidazo[1,2-a][1,3]diazol-5-yl]-1,3-benzothiazole], for which the IC50 was < 1 nM.

Usually IC50 stands for the midpoint of a concentration-inhibition curve.
